One assay deals with IL-6. Kind of assay: IL-6 mRNA expression by quantitative RT-PCR in porcine RPE cells. It counts as cell-based. As to conditions: T007907 10 μM; for reduction of IL-6 mRNA expression induced by A2E: NBX 20 μM with A2E 30 μM, MK886 1 μM, GSK3787 1 μM, HX531 5 μM with A2E 20 μM. How it is done:
(§1) Pig eyes were obtained from a local slaughterhouse and transported to the laboratory in ice-cold Ringer solution. After removal of the anterior segment of the eye, the vitreous and neural retina was separated from the RPE and removed. The eyecup was washed twice with phosphate buffer saline (PBS), filled with trypsin (0.25% in PBS) and incubated at 37°C for 1.5 h. RPE cells were harvested by gently pipetting, centrifuged to remove trypsin and re-suspended in Dulbecco’s Modified Eagle Medium (DMEM) supplemented with 20% (v/v) foetal-calf serum (DMEM20%FCS) and 0.1% gentamycin. Cells were seeded into 60 mm diameter Petri dishes, cultured in an atmosphere of 5% CO2/95% air at 37°C, and supplied with fresh medium after 24 hours and 4 days in vitro. For experiments aimed at measuring mRNA or protein expression in RPE, cells were trypsinized after one week in culture and transferred to 24-well or 6-well plates at a density of 1.5 × 10^5 cells/cm^2 in DMEM2%FCS. Norbixin or agonists were added to the medium 24 h after seeding, and antagonists were added to the medium 24 h later. A2E treatment was performed during 19 h before cellular sample preparation. All the drugs used in these experiments were prepared as stock solutions in DMSO.
(§2) Total RNA was extracted using the NucleoSpin® RNA kit according to manufacturer’s instructions. RT of 500 ng of RNA was performed using the SuperScript III Reverse Transcriptase following the manufacturer’s instructions. Five ng of cDNA were amplified using the SYBR GREEN real-time PCR method. PCR primers for target genes and housekeeping gene GAPDH were designed using Primer3Plus Bioinformatic software (Table 2). The RT-PCR using the StepOne Plus (Life Technologies, Carlsbad, CA, USA) consisted of incubation at 50°C for 5 min followed by 40 cycles of 95°C for 15 s and of 60°C for 1 min. The reaction was completed by a melt curve stage at 95°C for 15 s, 60°C for 1 min, 95°C for 15 s and a final step at 60°C for 15 s. The relative mRNA expression was calculated using the comparative threshold method (Ct-method) with GAPDH for normalization. All experimental conditions were processed in triplicate and each experiment was done at least 3 times.

The next assay deals with PPAR. Kind of assay: Endogenous PPAR transactivation, luciferase reporter in primary porcine RPE cells. It counts as cell-based. As to conditions: A2E 20 μM; for effect on endogenous PPAR transactivation induced by A2E: MK886 1 μM, GSK3787 1 μM, T007907 10 μM, separately or as mixture. The protocol: as §1
(§3) After one week in culture, cells were trypsinized and transferred to a 96-well plate at a density of 6 × 10^4 cells/cm^2 in DMEM2%FCS. The next day, cells were transfected using the Cignal Reporter Assay Kits for PPAR, RXR, AP-1 and NF-κB, according to the manufacturer’s specifications. To measure the specific activation of PPAR isoforms, cells were also co-transfected with PPAR-α, PPAR-β/δ or PPAR-γ expression vectors. Transfection was performed with Lipofectamine and Plus Reagent in serum-free medium. 3 h after the transfection, the medium was replaced and treatments with the molecules to assay were performed. Luciferase activity was measured the next day using the Dual-Luciferase Reporter Assay System. The measurements were performed with a luminometer (Infinite M1000 from Tecan, Mannedorf, Switzerland). Firefly: Renilla activity ratios were calculated for each condition and ratios from transcription factor-responsive reporter transfections were divided by ratios from negative control transfections to obtain relative luciferase unit, as described by the manufacturer. At least 3 independent transfections were performed in triplicate for each condition.

The next assay has as its system IL-8. Kind of assay: IL-8 mRNA expression by quantitative RT-PCR in porcine RPE cells. As to conditions: A2E 20 μM; MK886 1 μM, GSK3787 1 μM, T007907 10 μM, HX531 5 μM. It counts as cell-based. The protocol: as §1, §2
Assay [1] deals with PPAR-α. Kind of assay: Transactivation of over-expressed PPAR-α, luciferase reporter in porcine RPE cells. It counts as cell-based, pig. As to conditions: vs DMSO control; A2E 20 μM; NBX increasing concentrations. The protocol:
First, we evaluated the binding profile of A2E to all three isoforms of PPAR. […] Then the effects of A2E on the endogenous PPAR transactivation in porcine RPE cells were investigated by means of a luciferase assay. […] The level of transactivation of PPAR-α, -β/δ, or -γ isoforms by A2E was determined by co-transfection of porcine RPE cells with a plasmid expressing each of the full-length PPAR isoforms and a plasmid expressing luciferase under the control of the PPAR response element. […]. All usual chemicals, primers, and HX531 were from Sigma (St. Louis, MO, USA). Reagents for cell culture, transfection and quantitative RT-PCR were from Thermo Fisher Scientific (Waltham, MA, USA). RNA extraction NucleoSpin® RNA kit was from Macherey Nagel (Düren, Germany). ECL prime and PVDF membrane were from Amersham GE Healthcare (Buckinghamshire, UK). Primary antibodies against the following proteins were used: GAPDH (Santa Cruz Biotechnology, Inc, Dallas, TX, USA); pAKT, AKT, pERK and ERK (Cell Signaling, Danvers, MA, USA). Secondary antibodies were from Jackson ImmunoResearch (Cambridgeshire, UK). […] Cignal Pathway Reporter Assay Kits were from QIAGEN (Frederick, MD, USA). The Dual-Luciferase Reporter Assay System was purchased from Promega (Madison, WI, USA). pcDNA 3.1 (+)-PPARα and pcDNA 3.1 (+)-PPARβ/δ (pig sequence) were purchased from Genscript (Piscataway, NJ, USA). pCMV6-XL4-PPARγ (human sequence) was purchased from Origene (Rockville, MD, USA).
as §3
On the technique in general: In a reporter assay the amount or activity of a reporter protein is the signal.

Assay [2] addresses T1, PPAR-α (Homo sapiens, UniProt Q07869).
T1 construct: Eurofins Cerep (contract laboratory that ran the assay)
T1 sequence (Q07869 1-468): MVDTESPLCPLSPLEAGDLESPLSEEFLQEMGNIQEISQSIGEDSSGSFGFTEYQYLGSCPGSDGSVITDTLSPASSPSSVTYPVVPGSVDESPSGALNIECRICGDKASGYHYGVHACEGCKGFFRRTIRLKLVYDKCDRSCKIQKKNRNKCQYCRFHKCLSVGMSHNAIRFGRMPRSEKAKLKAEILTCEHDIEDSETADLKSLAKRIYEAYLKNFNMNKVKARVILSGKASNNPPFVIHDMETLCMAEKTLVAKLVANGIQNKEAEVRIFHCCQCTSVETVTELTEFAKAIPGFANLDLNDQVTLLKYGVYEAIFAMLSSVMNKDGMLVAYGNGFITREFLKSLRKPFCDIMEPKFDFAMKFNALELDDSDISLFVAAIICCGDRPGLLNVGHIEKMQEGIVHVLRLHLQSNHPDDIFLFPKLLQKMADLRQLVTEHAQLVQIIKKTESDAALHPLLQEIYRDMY
As to conditions: stated without reference; cited from earlier work.

The next assay has as its system VEGF. Kind of assay: VEGF mRNA expression by quantitative RT-PCR in porcine RPE cells. The assay is classed as cell-based. As to conditions: HX531 5 μM + A2E 20 μM. The protocol: as §1
as §2, with “All experimental conditions were processed in triplicate and each experiment was done at least 3 times.” left out

The test system of another assay is NF-κB. Kind of assay: NF-κB transactivation, luciferase reporter in porcine RPE cells. It counts as cell-based. As to conditions: A2E 20 μM, T007907 10 μM; for inhibition of NF-κB transactivation induced by A2E: NBX 20 μM, HX531 5 μM. The protocol: as §1, §3
Another assay concerns RXR. Kind of assay: Endogenous RXR transactivation, luciferase reporter in porcine RPE cells. As to conditions: NBX 20 μM. The assay is classed as cell-based. How it is done:
as §1, §3

A further assay relates to AP-1. Kind of assay: AP-1 transactivation, luciferase reporter in porcine RPE cells. It counts as cell-based. As to conditions: A2E 20 μM; NBX 20 μM, HX531 5 μM. How it is done:
as §1
as §3, with “Transfection was performed with Lipofectamine and Plus Reagent in serum-free medium. 3 h after the transfection, the medium was replaced and treatments with the molecules to assay were performed.” left out, “The measurements were performed with a luminometer (Infinite M1000 from Tecan, Mannedorf, Switzerland).” left out, “At least 3 independent transfections were performed in triplicate for each condition.” left out

Each structure is given as a SMILES string.

Turning to `O=C(NCCS(=O)(=O)c1ccc(C(F)(F)F)cn1)c1ccc(Cl)cc1` [GSK3787], the “reduction of IL-6 mRNA expression induced by A2E” value (from here on “reduction”) with IL-6 amounted to 45%. Moreover, the “effect on endogenous PPAR transactivation induced by A2E” value (“effect … by A2E” below) with PPAR is “did not significantly inhibit”. Besides, the “inhibition of IL-8 mRNA expression induced by A2E” value with IL-8 is 35%.
`CCCCCCCN(CCc1ccc(SC(C)(C)C(=O)O)cc1)C(=O)Nc1ccc(F)cc1F` [GW9578]: in the assay on PPAR-α [1], the “transactivation of over-expressed PPAR-α by the compound alone” value is listed as “induced transactivation”. In addition, at PPAR-α [2], the “binding affinity to PPAR-α” value is “nanomolar range”.
As to `CN1c2ccc([N+](=O)[O-])cc2N=C(c2ccc(C(=O)O)cc2)c2cc3c(cc21)C(C)(C)CCC3(C)C` [HX531], in the assay with VEGF, the “lowering of VEGF mRNA expression induced by A2E” value turned out to be 76.8%. In addition, the “reduction” value in the assay on IL-6 is on record as 88.6%. Besides, the “inhibition of endogenous PPAR transactivation induced by A2E” value in the assay with PPAR (NBX 20 μM, HX531 5 μM (HX531 effect not significant)) came to 30%. The “inhibition of NF-κB transactivation induced by A2E” value with NF-κB came to 100%. In addition, the “inhibition of RXR transactivation induced by A2E” value with RXR (A2E 20 μM, HX531 5 μM) is reported as 50.1%. Besides, the “inhibition of IL-8 mRNA expression induced by A2E” value in the assay with IL-8 is listed as 99.6%. The “inhibition of AP-1 transactivation induced by A2E” value in the assay on AP-1 is recorded as 100%.
Consider `CC1(C)CCC(C)(C)c2cc3c(cc21)Sc1ccccc1N=C3c1ccc(C(=O)O)cc1` [HX630], for which the “transactivation of RXRs by the compound alone” value with RXR (HX630 5 μM, vs DMSO control) is “transactivation induced by HX630”.
Consider `CC(C)c1ccc2c(c1)c(SC(C)(C)C)c(CC(C)(C)C(=O)O)n2Cc1ccc(Cl)cc1` [MK886], for which, in the assay with IL-6, the “reduction” value stood at 58.7%. For the same compound, the “effect … by A2E” value in the assay with PPAR is recorded as “did not significantly inhibit”. Also, the “inhibition of IL-8 mRNA expression induced by A2E” value in the assay on IL-8 is 37%.
As for `O=C(Nc1ccncc1)c1cc([N+](=O)[O-])ccc1Cl` [T007907], the “reduction” value with IL-6 is recorded as 69.6%. Also, the “effect of the compound alone on IL-6 mRNA expression” value in the assay with IL-6 (vs DMSO control) is recorded as “enhanced”. Further, the “effect … by A2E” value in the assay on PPAR is “did not significantly inhibit”. The “inhibition of NF-κB transactivation induced by A2E” value in the assay with NF-κB worked out at 100%. Also, in the assay on NF-κB (vs DMSO control), the “effect of the compound alone on NF-κB transactivation” value was “inhibited”. Also, in the assay on IL-8, the “inhibition of IL-8 mRNA expression induced by A2E” value was 45.9%.

Values taken from paper PMC8507260, “A2E-induced inflammation and angiogenesis in RPE cells in vitro are modulated by PPAR-α, -β/δ, -γ, and RXR antagonists and by norbixin” (Aging (Albany NY), 2021).
